# Experimental data from US20210261512A1, “NOVEL COMPOUNDS” (INFLAZOME LIMITED, priority 2018, published 2021).
# Biological target: NLRP3 (Homo sapiens, UniProt Q96P20)
# Test: THP-1 cells pyroptosis assay
# Format: cell-based
# Design: Seed THP-1 cells (25,000 cells/well) containing 1.0 μg/ml LPS; host or cells: THP-1
# Details: LPS 1.0 μg/ml, nigericin 5 μM, resazurin readout, 10 μM top dose (Example 2: top dose of 30 μM)
# Method: THP-1 cells (ATCC #TIB-202) were grown in RPMI containing L-glutamine (Gibco #11835) supplemented with imM sodium pyruvate (Sigma #S8636) and penicillin (100 units/ml)/streptomycin (0.1 mg/ml) (Sigma #P4333) in 10% Fetal Bovine Serum (FBS) (Sigma #F0804). The cells were routinely passaged and grown to confluency (˜10^6 cells/ml). On the day of the experiment, THP-1 cells were harvested and resuspended into RPMI medium (without FBS). The cells were then counted and viability (>90%) checked by Trypan blue (Sigma #T8154). Appropriate dilutions were made to give a concentration of 625,000 cells/ml. To this diluted cell solution was added LPS (Sigma #L4524) to give a 1 μg/ml Final Assay Concentration (FAC). 40 μl of the final preparation was aliquoted into each well of a 96-well plate. The plate thus prepared was used for compound screening.
# The following method step-by-step assay was followed for compound screening. • 1. Seed THP-1 cells (25,000 cells/well) containing 1.0 μg/ml LPS in 40 μl of RPMI medium (without FBS) in 96-well, black walled, clear bottom cell culture plates coated with poly-D-lysine (VWR #734-0317) • 2. Add 5 μl compound (8 points four-fold dilution or 8 points half-log dilution, with 10 μM top dose, unless stated otherwise) or vehicle (DMSO 0.1% FAC) to the appropriate wells • 3. Incubate for 3 hrs at 37° C. and 5% CO2 • 4. Add 5 μl nigericin (Sigma #N7143) (FAC 5 μM) to all wells • 5. Incubate for 1 hr at 37° C. and 5% CO2 • 6. At the end of the incubation period, spin plates at 300×g for 3 mins and remove supernatant • 7. Then add 50 μl of resazurin (Sigma #R^7017) (FAC 100 μM resazurin in RPMI medium without FBS) and incubate plates for a further 1-2 hrs at 37° C. and 5% CO2 • 8. Plates were read in an Envision reader at Ex 560 nm and Em 590 nm • 9. IC50 data is fitted to a non-linear regression equation (log inhibitor vs response-variable slope 4-parameters)
# NLRP3, sequence (Q96P20 whole entry): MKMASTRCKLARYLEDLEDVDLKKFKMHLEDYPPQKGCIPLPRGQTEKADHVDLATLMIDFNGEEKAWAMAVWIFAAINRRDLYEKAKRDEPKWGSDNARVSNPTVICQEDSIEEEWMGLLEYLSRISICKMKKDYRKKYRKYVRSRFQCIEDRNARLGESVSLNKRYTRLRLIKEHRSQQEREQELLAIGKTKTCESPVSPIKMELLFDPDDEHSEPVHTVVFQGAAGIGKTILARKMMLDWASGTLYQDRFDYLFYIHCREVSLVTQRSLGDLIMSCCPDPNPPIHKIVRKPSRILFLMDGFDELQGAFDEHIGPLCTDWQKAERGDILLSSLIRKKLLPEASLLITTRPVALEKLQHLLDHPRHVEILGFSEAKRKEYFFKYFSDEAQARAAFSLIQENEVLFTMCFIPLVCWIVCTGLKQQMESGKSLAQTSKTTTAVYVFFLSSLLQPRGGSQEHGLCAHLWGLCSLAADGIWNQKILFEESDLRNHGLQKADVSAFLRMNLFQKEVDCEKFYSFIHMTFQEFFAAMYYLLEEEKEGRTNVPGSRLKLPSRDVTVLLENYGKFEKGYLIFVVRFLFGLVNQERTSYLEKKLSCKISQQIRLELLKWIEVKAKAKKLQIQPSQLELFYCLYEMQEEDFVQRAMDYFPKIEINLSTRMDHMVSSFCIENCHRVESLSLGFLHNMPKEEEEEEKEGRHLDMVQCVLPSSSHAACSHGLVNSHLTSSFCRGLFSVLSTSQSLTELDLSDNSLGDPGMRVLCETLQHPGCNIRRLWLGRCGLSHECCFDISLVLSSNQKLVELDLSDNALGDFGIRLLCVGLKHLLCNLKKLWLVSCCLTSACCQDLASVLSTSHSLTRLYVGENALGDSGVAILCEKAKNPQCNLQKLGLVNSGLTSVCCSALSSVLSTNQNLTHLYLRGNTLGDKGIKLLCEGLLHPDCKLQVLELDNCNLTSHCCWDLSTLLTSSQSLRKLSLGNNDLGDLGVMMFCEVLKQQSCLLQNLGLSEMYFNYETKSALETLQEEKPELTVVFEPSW
row,SMILES,IC50 [µM]
1,"CN1CCC(N(C)S(=O)(=O)c2nnc(Nc3c4c(cc5c3CCC5)CCC4)[nH]2)CC1 [Example 90, 5-((1,2,3,5,6,7-hexahydro-s-indacen-4-yl)amino)-N-methyl-N-(1-methylpiperidin-4-yl)-4H-1,2,4-triazole-3-sulfonamide]",≤ 10
2,"CN1CCC(CN(C)S(=O)(=O)c2nnc(Nc3c4c(cc5c3CCC5)CCC4)[nH]2)C1 (centres unmarked) [Example 92, 5-((1,2,3,5,6,7-hexahydro-s-indacen-4-yl)amino)-N-methyl-N-((1-methylpyrrolidin-3-yl)methyl)-4H-1,2,4-triazole-3-sulfonamide]",≤ 10
3,"Cn1cc(NS(=O)(=O)c2nnc(Nc3c4c(cc5c3CCC5)CCC4)[nH]2)cn1 [Example 99, 5-((1,2,3,5,6,7-hexahydro-s-indacen-4-yl)amino)-N-(1-methyl-1H-pyrazol-4-yl)-4H-1,2,4-triazole-3-sulfonamide]",≤ 10
4,"CN1CCC(NS(=O)(=O)c2nnc(Nc3c4c(cc5c3CCC5)CCC4)[nH]2)CC1 [Example 102, 5-((1,2,3,5,6,7-hexahydro-s-indacen-4-yl)amino)-N-(1-methylpiperidin-4-yl)-4H-1,2,4-triazole-3-sulfonamide]",≤ 10
5,"C[C@@H](CN(C)C)NS(=O)(=O)c1nnc(Nc2c3c(cc4c2CCC4)CCC3)[nH]1 [Example 106, (S)—N-(1-(dimethylamino)propan-2-yl)-5-((1,2,3,5,6,7-hexahydro-s-indacen-4-yl)amino)-4H-1,2,4-triazole-3-sulfonamide]",≤ 10
6,"CC(=O)NCCN(C)S(=O)(=O)c1nnc(Nc2c3c(cc4c2CCC4)CCC3)[nH]1 [Example 107, N-(2-(5-((1,2,3,5,6,7-hexahydro-s-indacen-4-yl)amino)-N-methyl-4H-1,2,4-triazole-3-sulfonamido)ethyl)acetamide]",≤ 10
7,"COC(=O)CN(CCN)S(=O)(=O)c1nnc(Nc2c3c(cc4c2CCC4)CCC3)[nH]1 [Example 111, methyl 2-(N-(2-aminoethyl)-5-((1,2,3,5,6,7-hexahydro-s-indacen-4-yl)amino)-4H-1,2,4-triazole-3-sulfonamido)acetate]",≤ 10
8,"O=S(=O)(NC1CCCNC1)c1nnc(Nc2c3c(cc4c2CCC4)CCC3)[nH]1 (centres unmarked) [Example 112, 5-((1,2,3,5,6,7-hexahydro-s-indacen-4-yl)amino)-N-(piperidin-3-yl)-4H-1,2,4-triazole-3-sulfonamide]",≤ 5
9,"CN1CCN(S(=O)(=O)c2nnc(Nc3c4c(cc5c3CCC5)CCC4)[nH]2)CC1=O [Example 113, 4-((5-((1,2,3,5,6,7-hexahydro-s-indacen-4-yl)amino)-4H-1,2,4-triazol-3-yl)sulfonyl)-1-methylpiperazin-2-one]",≤ 5
10,"O=C1CCCN1CCNS(=O)(=O)c1nnc(Nc2c3c(cc4c2CCC4)CCC3)[nH]1 [Example 114, 5-((1,2,3,5,6,7-hexahydro-s-indacen-4-yl)amino)-N-(2-(2-oxopyrrolidin-1-yl)ethyl)-4H-1,2,4-triazole-3-sulfonamide]",≤ 5
11,"CC(=O)NCCNS(=O)(=O)c1nnc(Nc2c3c(cc4c2CCC4)CCC3)[nH]1 [Example 115, N-(2-(5-((1,2,3,5,6,7-hexahydro-s-indacen-4-yl)amino)-4H-1,2,4-triazole-3-sulfonamido)ethyl)acetamide]",≤ 5
12,"CC(C)(O)CCNS(=O)(=O)c1nnc(Nc2c3c(cc4c2CCC4)CCC3)[nH]1 [Example 116, 5-((1,2,3,5,6,7-hexahydro-s-indacen-4-yl)amino)-N-(3-hydroxy-3-methylbutyl)-4H-1,2,4-triazole-3-sulfonamide]",≤ 5
13,"O=C1CCC(CNS(=O)(=O)c2nnc(Nc3c4c(cc5c3CCC5)CCC4)[nH]2)N1 (centres unmarked) [Example 121, 5-((1,2,3,5,6,7-hexahydro-s-indacen-4-yl)amino)-N-((5-oxopyrrolidin-2-yl)methyl)-4H-1,2,4-triazole-3-sulfonamide]",≤ 10
14,"O=S(=O)(c1nnc(Nc2c3c(cc4c2CCC4)CCC3)[nH]1)N1CCC(O)C1 (centres unmarked) [Example 123, 1-((5-((1,2,3,5,6,7-hexahydro-s-indacen-4-yl)amino)-4H-1,2,4-triazol-3-yl)sulfonyl)pyrrolidin-3-ol]",≤ 5
15,"O=S(=O)(c1nnc(Nc2c3c(cc4c2CCC4)CCC3)[nH]1)N1CCC(N2CCOCC2)C1 (centres unmarked) [Example 127, N-(1,2,3,5,6,7-hexahydro-s-indacen-4-yl)-5-((3-morpholinopyrrolidin-1-yl)sulfonyl)-4H-1,2,4-triazol-3-amine]",≤ 5
16,"O=S(=O)(NCCN1CCOCC1)c1nnc(Nc2c3c(cc4c2CCC4)CCC3)[nH]1 [Example 129, 5-((1,2,3,5,6,7-hexahydro-s-indacen-4-yl)amino)-N-(2-morpholinoethyl)-4H-1,2,4-triazole-3-sulfonamide]",≤ 5
17,"CN1CCN(CCNS(=O)(=O)c2nnc(Nc3c4c(cc5c3CCC5)CCC4)[nH]2)CC1 [Example 131, 5-((1,2,3,5,6,7-hexahydro-s-indacen-4-yl)amino)-N-(2-(4-methylpiperazin-1-yl)ethyl)-4H-1,2,4-triazole-3-sulfonamide]",≤ 5
18,"O=S(=O)(NCCc1ccccc1)c1nnc(Nc2c3c(cc4c2CCC4)CCC3)[nH]1 [Example 134, 5-((1,2,3,5,6,7-hexahydro-s-indacen-4-yl)amino)-N-phenethyl-4H-1,2,4-triazole-3-sulfonamide]",≤ 5
19,"CN1CCN(C2CCN(S(=O)(=O)c3nnc(Nc4c5c(cc6c4CCC6)CCC5)[nH]3)CC2)CC1 [Example 135, N-(1,2,3,5,6,7-hexahydro-s-indacen-4-yl)-5-((4-(4-methylpiperazin-1-yl)piperidin-1-yl)sulfonyl)-4H-1,2,4-triazol-3-amine]",≤ 5
20,"CNC(=O)C1CCN(S(=O)(=O)c2nnc(Nc3c4c(cc5c3CCC5)CCC4)[nH]2)C1 (centres unmarked) [Example 140, 1-((5-((1,2,3,5,6,7-hexahydro-s-indacen-4-yl)amino)-4H-1,2,4-triazol-3-yl)sulfonyl)-N-methylpyrrolidine-3-carboxamide]",≤ 5

# The next lines start with the values.
row,IC50 [µM],SMILES
1,≤ 5,"O=S(=O)(NCc1ccccc1)c1nnc(Nc2c3c(cc4c2CCC4)CCC3)[nH]1 [Example 86, N-benzyl-5-((1,2,3,5,6,7-hexahydro-s-indacen-4-yl)amino)-4H-1,2,4-triazole-3-sulfonamide]"
2,≤ 5,"CN1CC(CNS(=O)(=O)c2nnc(Nc3c4c(cc5c3CCC5)CCC4)[nH]2)C1 [Example 88, 5-((1,2,3,5,6,7-hexahydro-s-indacen-4-yl)amino)-N-((1-methazetidin-3-yl)methyl)-4H-1,2,4-triazole-3-sulfonamide]"
3,≤ 5,"O=S(=O)(NCc1ccncc1)c1nnc(Nc2c3c(cc4c2CCC4)CCC3)[nH]1 [Example 96, 5-((1,2,3,5,6,7-hexahydro-s-indacen-4-yl)amino)-N-(pyridin-4-ylmethyl)-4H-1,2,4-triazole-3-sulfonamide]"
4,≤ 5,"O=S(=O)(NCc1cccnc1)c1nnc(Nc2c3c(cc4c2CCC4)CCC3)[nH]1 [Example 97, 5-((1,2,3,5,6,7-hexahydro-s-indacen-4-yl)amino)-N-(pyridin-3-ylmethyl)-4H-1,2,4-triazole-3-sulfonamide]"
5,≤ 5,"O=S(=O)(NCc1ccccn1)c1nnc(Nc2c3c(cc4c2CCC4)CCC3)[nH]1 [Example 98, 5-((1,2,3,5,6,7-hexahydro-s-indacen-4-yl)amino)-N-(pyridin-2-ylmethyl)-4H-1,2,4-triazole-3-sulfonamide]"
6,≤ 5,"CN1CCN(S(=O)(=O)c2nnc(Nc3c4c(cc5c3CCC5)CCC4)[nH]2)CC1 [Example 100, N-(1,2,3,5,6,7-hexahydro-s-indacen-4-yl)-5-((4-methylpiperazin-1-yl)sulfonyl)-4H-1,2,4-triazol-3-amine]"
7,≤ 5,"CN1CCC2CN(S(=O)(=O)c3nnc(Nc4c5c(cc6c4CCC6)CCC5)[nH]3)CC21 (centres unmarked) [Example 101, N-(1,2,3,5,6,7-hexahydro-s-indacen-4-yl)-5-((1-methylhexahydropyrrolo[3,4-b]pyrrol-5 (1H)-yl)sulfonyl)-4H-1,2,4-triazol-3-amine]"
8,≤ 5,"O=c1cccc(CNS(=O)(=O)c2nnc(Nc3c4c(cc5c3CCC5)CCC4)[nH]2)[nH]1 [Example 103, 5-((1,2,3,5,6,7-hexahydro-s-indacen-4-yl)amino)-N-((6-oxo-1,6-dihydropyridin-2-yl)methyl)-4H-1,2,4-triazole-3-sulfonamide]"
9,≤ 5,"CN1CCC[C@H](NS(=O)(=O)c2nnc(Nc3c4c(cc5c3CCC5)CCC4)[nH]2)C1 [Example 105, (S)-5-((1,2,3,5,6,7-hexahydro-s-indacen-4-yl)amino)-N-(1-methylpiperidin-3-yl)-4H-1,2,4-triazole-3-sulfonamide]"
